Experimental data reported in publication PMC11019538, “Biophysics-Guided Lead Discovery of HBV Capsid Assembly Modifiers” (ACS Infectious Diseases, 2024).

Tested on: HBV DNA replication in HepAD38 cells
Experiment: HBV DNA replication inhibition assay in HepAD38 cells (7 days, PCR of supernatant DNA)
Format: cell-based, hepatitis B virus
Conditions: Hepatitis B virus; HepAD38 cells, 10 μM, trial 1; read-out: % HBV DNA Inh. at 10 μM, trial 1
Protocol: HepAD38 cells were seeded at 50,000 cells/well in collagen-coated 96-well plates. […] The experiment lasted 7 days. On day 7, total DNA was purified from the supernatant using a commercially available kit (DNeasy 96 Blood & Tissue kit, Qiagen). The HBV DNA was amplified in a polymerase chain reaction assay using LightCycler 480 II (Roche), as previously described.[63] All samples were tested in duplicate.

SMILES	inhibition at 10 µM
CCOC(=O)c1cc(-c2cc(C(=O)OCC)c3ccccc3n2)nc2ccccc12 [GT-33]	60%
Cc1nc(-c2c(-c3ccccc3)ncn2Cc2cccc3[nH]ccc23)c[nH]1 [GT-40]	55%

Same assay, conditions: Hepatitis B virus; HepAD38 cells, 10 μM, trial 2; read-out: % HBV DNA Inh. at 10 μM, trial 2

SMILES	inhibition at 10 µM
CCOC(=O)c1cc(-c2cc(C(=O)OCC)c3ccccc3n2)nc2ccccc12 [GT-33]	37%
Cc1nc(-c2c(-c3ccccc3)ncn2Cc2cccc3[nH]ccc23)c[nH]1 [GT-40]	50%

Same assay, conditions: Hepatitis B virus; HepAD38 cells, 10 µM, trial 3; read-out: % HBV DNA Inh. at 10 µM, trial 3

SMILES	inhibition at 10 µM
CCOC(=O)c1cc(-c2cc(C(=O)OCC)c3ccccc3n2)nc2ccccc12 [GT-33]	< 1%
Cc1nc(-c2c(-c3ccccc3)ncn2Cc2cccc3[nH]ccc23)c[nH]1 [GT-40]	< 1%

Same assay, conditions: Hepatitis B virus; HepAD38 cells, 10 µM, trial 4; read-out: % HBV DNA Inh. at 10 µM, trial 4

SMILES	inhibition at 10 µM
CCOC(=O)c1cc(-c2cc(C(=O)OCC)c3ccccc3n2)nc2ccccc12 [GT-33]	< 1%
Cc1nc(-c2c(-c3ccccc3)ncn2Cc2cccc3[nH]ccc23)c[nH]1 [GT-40]	< 1%

Same assay, conditions: Hepatitis B virus; HepAD38 cells, 10 μM; read-out: % inhibition in at least one of the trials

SMILES	inhibition at 10 µM
CCOC(=O)c1cc(-c2cc(C(=O)OCC)c3ccccc3n2)nc2ccccc12 [GT-33]	> 50%
Cc1nc(-c2c(-c3ccccc3)ncn2Cc2cccc3[nH]ccc23)c[nH]1 [GT-40]	> 50%

Same assay, conditions: Hepatitis B virus; HepAD38 cells, trial 1; read-out: EC50, trial 1

SMILES	EC50
CCOC(=O)c1cc(-c2cc(C(=O)OCC)c3ccccc3n2)nc2ccccc12 [GT-33]	< 10 µM
Cc1nc(-c2c(-c3ccccc3)ncn2Cc2cccc3[nH]ccc23)c[nH]1 [GT-40]	< 10 µM

Same assay, conditions: Hepatitis B virus; HepAD38 cells, trial 2; read-out: EC50, trial 2

SMILES	EC50
CCOC(=O)c1cc(-c2cc(C(=O)OCC)c3ccccc3n2)nc2ccccc12 [GT-33]	> 10 µM
Cc1nc(-c2c(-c3ccccc3)ncn2Cc2cccc3[nH]ccc23)c[nH]1 [GT-40]	10 µM

Same assay, conditions: Hepatitis B virus; HepAD38 cells, trial 3; read-out: EC50, trial 3

SMILES	EC50
CCOC(=O)c1cc(-c2cc(C(=O)OCC)c3ccccc3n2)nc2ccccc12 [GT-33]	> 10 µM
Cc1nc(-c2c(-c3ccccc3)ncn2Cc2cccc3[nH]ccc23)c[nH]1 [GT-40]	> 10 µM

Same assay, conditions: Hepatitis B virus; HepAD38 cells, trial 4; read-out: EC50, trial 4

SMILES	EC50
CCOC(=O)c1cc(-c2cc(C(=O)OCC)c3ccccc3n2)nc2ccccc12 [GT-33]	> 100 µM
Cc1nc(-c2c(-c3ccccc3)ncn2Cc2cccc3[nH]ccc23)c[nH]1 [GT-40]	> 100 µM

Tested on: not listed separately
Experiment: MTT cytotoxicity, Vero cells
Format: cell-based, African green monkey
Conditions: African green monkey, Vero cells (kidney)
Protocol: (§1) Human peripheral blood mononuclear (PBM), T lymphoblast CEM-CCRF (herein referred to as CEM cells), African green monkey kidney (Vero), or human liver carcinoma (HepG2) cells were tested via MTT assay using the CellTiter 96 Non-Radioactive Cell Proliferation (Promega) kit as previously described.[63]

SMILES	CC50
CCOC(=O)c1cc(-c2cc(C(=O)OCC)c3ccccc3n2)nc2ccccc12 [GT-33]	76 µM
Cc1nc(-c2c(-c3ccccc3)ncn2Cc2cccc3[nH]ccc23)c[nH]1 [GT-40]	> 100 µM

Same assay, conditions: African green monkey; Vero cells

SMILES	CC50
C[C@@H]1C[C@@H]([C@H](O)CC2CC(=O)NC(=O)C2)C(=O)[C@@H](C)C1 [Cycloheximide, reference compound]	0.2 µM

Tested on: African green monkey kidney (Vero) cells
Experiment: MTT cytotoxicity, Vero cells
Format: cell-based
Conditions: Vero cells, 100 µM
Protocol: as §1

SMILES	% cytotoxicity (MTT) at 100 µM
Cc1nc(-c2c(-c3ccccc3)ncn2Cc2cccc3[nH]ccc23)c[nH]1 [GT-40]	39%

Tested on: T lymphoblast CEM-CCRF (CEM) cells
Experiment: MTT cytotoxicity, CEM cells
Format: cell-based, human
Conditions: 100 µM
Protocol: as §1

SMILES	% cytotoxicity at 100 µM (MTT), CEM cells
CCOC(=O)c1cc(-c2cc(C(=O)OCC)c3ccccc3n2)nc2ccccc12 [GT-33]	32%

Tested on: not listed separately
Experiment: MTT cytotoxicity, CEM cells
Format: cell-based, human
Conditions: human
Protocol: as §1

SMILES	CC50
C[C@@H]1C[C@@H]([C@H](O)CC2CC(=O)NC(=O)C2)C(=O)[C@@H](C)C1 [Cycloheximide, reference compound]	0.2 µM

Same assay, conditions: human, T lymphoblast CEM-CCRF (CEM) cells

SMILES	CC50
CCOC(=O)c1cc(-c2cc(C(=O)OCC)c3ccccc3n2)nc2ccccc12 [GT-33]	> 100 µM
Cc1nc(-c2c(-c3ccccc3)ncn2Cc2cccc3[nH]ccc23)c[nH]1 [GT-40]	77 µM

Target: T1, Cp149 capsid assembly (Hepatitis B virus genotype D subtype adw, UniProt P03147)
T1 construct: The N-terminal domain of Cp (Cp149) is sufficient for forming regular capsids; made in house; host or cells: E. coli BL21(DE3)
Experiment: Transmission electron microscopy of assembled Cp149 products
Format: biochemical
Conditions: 20 μM Cp149, 40 μM compound
Protocol: The assembled samples of Cp149 were prepared as described in the Size Exclusion Chromatography section. Eight μL of each sample was added onto the 300 mesh Lacey Formvar carbon–copper grids (Ted Pella, Inc.) and allowed to sit for 1.5 min. The grid was then rinsed in 500 mL of deionized water for 10 s twice to rinse off the extra buffer on the grid. After drying, the sample was stained with 8 μL of 2% uranyl acetate for 1 min. After removal and drying of the uranyl acetate solution, the sample was imaged with a Hitachi HT7700 electron microscope at an accelerating voltage of 120 kV, at the IMat Materials Characterization Facility of Georgia Institute of Technology. The images underwent processing using ImageJ software. Initially, to minimize noise, a Gaussian blur filter was applied. These images were then converted into an 8 bit binary format for edge detection. ImageJ identified particles ranging in size from 800 to 2000 pixels. An example of a processed image can be seen in Figure S14. The circularity of each particle was calculated using the formula circularity = 4π × area × perimeter^–2. […] A total of four images, each containing a minimum of 100 capsids, were analyzed to determine the proportion of the abnormal capsids. The entire experiment was duplicated, and the outcomes from both sets were then averaged.

T1 sequence (P03147 1-149): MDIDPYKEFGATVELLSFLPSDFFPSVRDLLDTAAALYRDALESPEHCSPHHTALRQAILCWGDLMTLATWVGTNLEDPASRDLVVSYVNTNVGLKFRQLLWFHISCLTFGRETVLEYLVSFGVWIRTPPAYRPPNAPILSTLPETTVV

SMILES	effect on capsid morphology (TEM)
CCOC(=O)c1cc(-c2cc(C(=O)OCC)c3ccccc3n2)nc2ccccc12 [GT-33]	induced misdirected products
Cc1nc(-c2c(-c3ccccc3)ncn2Cc2cccc3[nH]ccc23)c[nH]1 [GT-40]	no apparent effect

Same assay, conditions: 20 μM Cp149, 40 μM compound, 500 mM NaCl

SMILES	% abnormal capsids, Trial 1	% abnormal capsids, Trial 2
CCOC(=O)c1cc(-c2cc(C(=O)OCC)c3ccccc3n2)nc2ccccc12 [GT-33]	31%	26%
Cc1nc(-c2c(-c3ccccc3)ncn2Cc2cccc3[nH]ccc23)c[nH]1 [GT-40]	8%	11%

Same assay, conditions: average of two trials

SMILES	% abnormal capsids, Average
CCOC(=O)c1cc(-c2cc(C(=O)OCC)c3ccccc3n2)nc2ccccc12 [GT-33]	29%
Cc1nc(-c2c(-c3ccccc3)ncn2Cc2cccc3[nH]ccc23)c[nH]1 [GT-40]	10%

Target: T2, Cp149 (Hepatitis B virus genotype D subtype adw, UniProt P03147)
T2 construct: The N-terminal domain of Cp (Cp149) is sufficient for forming regular capsids; made in house; host or cells: E. coli BL21(DE3)
Experiment: Tryptophan fluorescence titration
Format: binding
Conditions: 20 μM Cp149, compound up to 100 μM
Protocol: Each of the compounds was titrated into 100 μL of the protein solution to final concentrations of 0, 5, 10, 20, 50, and 100 μM in a clear bottom 96-well plate. […] Tryptophan fluorescence levels were measured by exciting the samples at 285 nm and measuring the emission at 340 nm with the Varioskan Flash (Thermo Fisher) plate reader. […] Fluorescence quenching was calculated by taking the difference of net fluorescence levels of each concentration and of the 0 μM sample. All the samples were run in triplicate, and the results were averaged. The dissociation constants (KD) were fitted by the one-site-specific binding model of GraphPad.[45]

T2 sequence (P03147 1-149): as above

SMILES	tryptophan fluorescence quenching
CCOC(=O)c1cc(-c2cc(C(=O)OCC)c3ccccc3n2)nc2ccccc12 [GT-33]	reproducible but modest fluorescence quenching
Cc1nc(-c2c(-c3ccccc3)ncn2Cc2cccc3[nH]ccc23)c[nH]1 [GT-40]	No fluorescence quenching was observed

Same assay, conditions: one site specific binding model, Table S7

SMILES	KD
Cc1nc(-c2c(-c3ccccc3)ncn2Cc2cccc3[nH]ccc23)c[nH]1 [GT-40]	No binding

Tested on: not listed separately
Experiment: MTT cytotoxicity, HepG2 cells
Format: cell-based, human
Conditions: human, HepG2 cells (liver carcinoma)
Protocol: as §1

SMILES	CC50
CCOC(=O)c1cc(-c2cc(C(=O)OCC)c3ccccc3n2)nc2ccccc12 [GT-33]	86 µM
Cc1nc(-c2c(-c3ccccc3)ncn2Cc2cccc3[nH]ccc23)c[nH]1 [GT-40]	> 100 µM

Same assay, conditions: human; HepG2 cells

SMILES	CC50
C[C@@H]1C[C@@H]([C@H](O)CC2CC(=O)NC(=O)C2)C(=O)[C@@H](C)C1 [Cycloheximide, reference compound]	0.3 µM

Tested on: human liver carcinoma (HepG2) cells
Experiment: MTT cytotoxicity, HepG2 cells
Format: cell-based
Conditions: HepG2 cells, 100 µM
Protocol: as §1

SMILES	percent cytotoxicity (MTT) at 100 µM, HepG2
Cc1nc(-c2c(-c3ccccc3)ncn2Cc2cccc3[nH]ccc23)c[nH]1 [GT-40]	30%

Tested on: not listed separately
Experiment: MTT cytotoxicity, PBM cells
Format: cell-based, human
Conditions: human
Protocol: as §1

SMILES	CC50
C[C@@H]1C[C@@H]([C@H](O)CC2CC(=O)NC(=O)C2)C(=O)[C@@H](C)C1 [Cycloheximide, reference compound]	0.9 µM

Same assay, conditions: human, peripheral blood mononuclear (PBM) cells

SMILES	CC50
CCOC(=O)c1cc(-c2cc(C(=O)OCC)c3ccccc3n2)nc2ccccc12 [GT-33]	> 100 µM
Cc1nc(-c2c(-c3ccccc3)ncn2Cc2cccc3[nH]ccc23)c[nH]1 [GT-40]	> 100 µM

Tested on: human peripheral blood mononuclear (PBM) cells
Experiment: MTT cytotoxicity, PBM cells
Format: cell-based
Conditions: 100 µM
Protocol: as §1

SMILES	percent cytotoxicity (cell growth inhibition) at 100 µM
CCOC(=O)c1cc(-c2cc(C(=O)OCC)c3ccccc3n2)nc2ccccc12 [GT-33]	5.6%
Cc1nc(-c2c(-c3ccccc3)ncn2Cc2cccc3[nH]ccc23)c[nH]1 [GT-40]	19%
